Columns and labels:
[1] = tested on: C1R B lymphoblastoid line transduced with the Class I B27 allele; test: Class I expression on B27-transduced C1R B lymphoblastoid line, labeled W6/32 monoclonal antibody (FIG. 3); format: cell-based, human; settings: for impact on Class I expression: other pharmacologic agents compared with 8-MOP
Experimental: In order to evaluate the enhanced immunogenicity of 8-MOP treated CTCL cells, a series of human lymphoblast lines was derived. The C1R B lymphoblastoid line, which in its native state expresses no HLA-A or HLA-B surface Class I and only a minute amount of HLA-C molecules was transduced with the Class I B27 allele. This modified cell population, with nearly all of its surface Class I molecules being B27, was exposed to 8MOP and incubated overnight.

[2] = tested on: Class I protein on the cell surface; test: Class I expression after 8-MOP/UVA, fluorescent antibody, mean fluorescence channel (FIG. 2); format: cell-based
Text: Mean fluorescence channel measurements permit the quantification of the amount of Class I protein on the cell surface, as identified with a fluorescent antibody against the Class I protein.

[3] = tested on: Class I molecules on transduced C1R B cells; test: Binding of iodinated B27 allele-specific peptide, immunoprecipitation with antibody 4E; format: cell-based, human; settings: transduced C1R B cells exposed to 8-MOP
Experimental: To determine if the Class I MHC molecules induced in Example 5 remained functional, i.e., could be loaded with a known B27 allele-specific peptide, iodinated peptide was added under varied conditions.

[4] = tested on: human B lymphoblasts lacking the TAP genes or with TAP blocked by transduced ICP47; test: TAP dependence of the 8-MOP-induced Class I increase (FIG. 4); format: cell-based; settings: B lymphoblasts that lacked the TAP genes or had them blocked by transduced ICP47 (both conditions)
Experimental: Next, it was determined that the 8-MOP-induced increase in surface Class I molecules is dependent on peptide transport across the endoplasmic reticulum through the transporter associated with […] (TAP) pores. […] The increased immunogenicity of 8MOP treated disease-effector cells was thus shown to involve the augmented catabolism of proteins, leading to the generation of small peptides that are then transported to Class I molecules in the endoplasmic reticulum and then on to the cell surface where they associate with the Class I molecules.

[5] = tested on: C1R human B lymphoblasts displaying B27 Class I complex; test: Class I MHC level of C1R cells incubated in various containers, cytofluorimeter (FIG. 5); format: cell-based; settings: photoactivated 8-MOP in the 2410 bag (no leachable plasticizers), about 24 hours at 37° C.
Experimental: In the foregoing experiment, C1R human B lymphoblasts, cells molecularly engineered so that they display a readily studied B27 Class I protein complex, were exposed to photoactivated 8-MOP in the presence of various plastic containers. The mean fluorescence intensity was measured in a cytofluorimeter, using monoclonal antibodies specific for the B27 Class I complex.

CO[C@@]12[C@H](COC(N)=O)C3=C(C(=O)C(C)=C(N)C3=O)N1C[C@@H]1N[C@@H]12 [mytomycin C]
impact on Class I expression [1]: either no or a more limited impact

γ-interferon: other pharmacologic agent compared with 8-MOP
impact on Class I expression [1]: either no or a more limited impact

COc1c2occc2cc2ccc(=O)oc12 [8-MOP, 8-methoxypsoralen]
Class I molecule expression ([2]; 1 joule per cm^2 of UVA and 200 ng/ml of 8-MOP, incubation about 18 hours, versus control cells): about doubles
allele-specific peptide bound versus untreated cell line control [3]: approximately 3 fold
increase in functional Class I molecules per cell [3]: > 10,000 functional Class I molecules per cell
8-MOP induced increase in Class I molecules [4]: prevented
Class I MHC level versus untreated controls [5]: more than doubled
Class I expression ([1]; UVA administered before the addition of 8-MOP, drug not photoactivated): only a minor increase
time to peak levels of Class I expression after exposure ([1]; optimal levels of 8-MOP): 20 h
increase of Class I expression over background ([1]; photoactivated 8-MOP, optimal levels, overnight incubation): approximately 3 fold

TNF-α
impact on Class I expression [1]: either no or a more limited impact

CC[C@H]1CN2CCc3cc(OC)c(OC)cc3[C@@H]2C[C@@H]1C[C@H]1NCCc2cc(OC)c(OC)cc21 [emetine]
effect on the 8-MOP/UVA-induced increase in Class I expression ([2]; emetine added to 8-MOP/UVA treated cells): prevented
